Holding throughout (assay type): physicochemical
The nature of series [1]: Dissolution, 900 ml pH 6.8 phosphate buffer, USP Apparatus 1, 75 rpm, 37° C. The settings on record: Example 29 homogenous CR tablet (batch no. 08070T). As for the experimental part: (§1) The dissolution profile of the above pharmaceutical composition was determined under the dissolution conditions described below in Tables 1A, 1B, and 1C.
The nature of series [2]: Dissolution, 900 ml pH 7.5 phosphate buffer, Apparatus 1, 75 rpm, 37 C. Here is the method:
FIG. 27 is a graph depicting the dissolution profile in 900 ml of pH 7.5 phosphate buffer using USP Apparatus 1 at 75 rpm at 37° C. of the composition described in Example 27.
FIG. 28 is a graph depicting the dissolution profile in 900 ml of pH 7.5 phosphate buffer using USP Apparatus 1 at 75 rpm at 37° C. of the composition described in Example 28.
The dissolution profile of the above pharmaceutical composition was determined under the dissolution conditions described below in Table 27.
The dissolution profile of the above pharmaceutical composition was determined under the dissolution conditions described below in Table 28. The result of the dissolution testing is presented as a % of the total tramadol HCl and meloxicam in the controlled release tablet (batch 1258-175) and also depicted in FIG. 28.

The nature of series [3]: Dissolution, 900 ml 0.1N HCl, USP Apparatus 1, 75 rpm, 37° C. The settings on record: Example 29 homogenous CR tablet (batch no. 08070T). Here is the method: as §1
Series [4] can be described thus: pKa (physicochemistry of the actives). From the text: The synchronous release of the combination of actives comprising the once-daily pharmaceutical compositions of the present invention is particularly surprising when one considers that the differing physicochemical characteristics of the active ingredients and the likely differences in the permeability coefficients for the combination of active drugs would result in a differing rate and extent of drug release for each of the drugs chosen to be part of the combination. Accordingly, it was expected that it would be difficult to optimize the release kinetics of the combination of drugs contemplated without one drug potentially negatively influencing the release kinetics of the other drug of the combination.

SMILES strings stand for the structures. Where a name gives a salt, the structure may show the parent alone.

Take `COc1cccc(C2(O)CCCCC2CN(C)C)c1` (stereo not shown) [Tramadol HCl]: the “% Released” value in series [1] (0.5 hr) is recorded as 19%; in series [1] (1 hr), 29%; in series [1] (2 hr) it was 44%; in series [1] (3 hr) it was 55%; in series [1] (4 hr), 65%; in series [1] (5 hr), 72%. The “% Released” value came out at 79% in series [1] (6 hr); 90% in series [1] (8 hr); 98% in series [1] (10 hr); 18% in series [3] (0.5 hr); 28% in series [3] (1 hr); 42% in series [3] (2 hr). Also, the “% Released” value in series [3] (3 hr) came to 53%; in series [3] (4 hr), 62%; in series [3] (5 hr), 70%; in series [3] (6 hr), 76%; in series [3] (8 hr) it was 86%; in series [3] (10 hr), 93%. Further, the “% Released” value in series [3] (12 hr) was 97%. The “% Release” value amounted to 51% in series [2] (2 hrs, Example 27 controlled release tablet (batch 1258-171), ethylcellulose coating); 0% in series [2] (2 hrs, Example 28 controlled release tablet (batch 1258-175), Kollicoat SR 30D coating); 70% in series [2] (4 hrs, Example 27 controlled release tablet (batch 1258-171), ethylcellulose coating); 7% in series [2] (4 hrs, Example 28 controlled release tablet (batch 1258-175), Kollicoat SR 30D coating); 96% in series [2] (8 hrs, Example 27 controlled release tablet (batch 1258-171), ethylcellulose coating); 61% in series [2] (8 hrs, Example 28 controlled release tablet (batch 1258-175), Kollicoat SR 30D coating). The “% Release” value in series [2] (10 hrs, Example 27 controlled release tablet (batch 1258-171), ethylcellulose coating) is on record as 100%; in series [2] (10 hrs, Example 28 controlled release tablet (batch 1258-175), Kollicoat SR 30D coating), 74%; in series [2] (16 hrs, Example 27 controlled release tablet (batch 1258-171), ethylcellulose coating) it was 100%; in series [2] (16 hrs, Example 28 controlled release tablet (batch 1258-175), Kollicoat SR 30D coating) it was 84%.
By pKa is commonly meant the pH at which an ionisable group is half protonated. Take `CC(NC(C)(C)C)C(=O)c1cccc(Cl)c1` (stereo not shown) [Bupropion HBr, bupropion hydrobromide]: the pKa in series [4] turned out to be 7.8.
Turning to `OCCOCCN1CCN(C2=Nc3ccccc3Sc3ccccc32)CC1` [Quetiapine Fumarate, quetiapine fumarate], in series [4], the pKa is recorded as 3.3.
